Experimental findings from ChEMBL document CHEMBL4359903, “1,2,4-Oxadiazole derivatives targeting EGFR and c-Met degradation in TKI resistant NSCLC” (Eur J Med Chem, 2019) are described below.

Each structure is given as a SMILES string.

The test system of one test is NCI-H1975. Put plainly: Growth inhibition of human NCI-H1975 cells incubated for 3 days by CellTiter 96 aqueous nonradioactive cell proliferation assay. The format is functional. The conditions noted are these: NCI-H1975, 72 h.
The test system of another test is MDA-MB-231. Kind of test: Growth inhibition of human MDA-MB-231 cells incubated for 3 days by CellTiter 96 aqueous nonradioactive cell proliferation assay. It is filed as functional. The conditions noted are these: MDA-MB-231, 72 h.

In general, GI50 refers to the concentration that inhibits growth by half. For `CC(C)c1cc(C(=O)N2CCc3sccc3C2)c(O)cc1O`, the concentration for 50% growth inhibition (GI50) with NCI-H1975 was 1670 nM; in the test with MDA-MB-231, 478 nM.
